According to patent US20240181081A1, “Compositions and Methods for Treatment of Myotonic Dystrophy Type 1 with CRISPR/SACAS9” (Vertex Pharmaceuticals Incorporated, priority 2021, published 2024):
Values joined by “and” are separate entries in the source; they are usually repeats but may differ in a detail not shown here. Equal entries are not always repeated.

Legend:
[1] = test system: CTG repeat expansion in the 3′ UTR of human DMPK gene; experiment: DOUBLE-cut screening: CTG repeat excision by loss-of-signal ddPCR in primary DM1 patient myoblasts; type: cell-based; conditions: sgRNA pair RNP, mean of upstream and downstream ddPCR assays; for % of CTG repeat excision efficiency by ddPCR (DNA-PKi): 3 μM Compound 6 for 48 hrs; for % of CTG repeat excision efficiency by ddPCR (Vehicle): DMSO 48 hrs
Outline: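 Paired upstream/downstream sgRNAs, each as RNP with recombinant SaCas9 (20 pmol protein:60 pmol sgRNA), mixed 1:1 and nucleofected into primary DM1 myoblasts; cells then given DMSO or 3 μM DNA-PKi Compound 6 for 48 hrs. Genomic DNA taken 72 hrs post-nucleofection; excision is mean of upstream and downstream loss-of-signal ddPCR, normalized to DMPK exon 1 reference.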

[2] = test system: CUG RNA foci in primary DM1 patient myoblasts; experiment: DOUBLE-cut screening: FISH staining of RNA foci in primary DM1 patient myoblasts; type: cell-based, human; conditions: sgRNA pair RNP, 72 hrs post nucleofection; for % of CUG foci free nuclei (DNA-PKi): 3 μM Compound 6 for 48 hrs; for % of CUG foci free nuclei (Vehicle): DMSO 48 hrs
Outline: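 Primary DM1 patient myoblasts nucleofected with paired upstream/downstream sgRNA–SaCas9 RNPs (20 pmol protein, 60 pmol sgRNA each), then treated 48 hrs with DMSO or 3 μM DNA-PK inhibitor. At 72 hrs post nucleofection, CUG foci stained by Cy3-PNA(CAG)5 FISH with MBNL1 co-staining and quantified by high-content confocal imaging.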

Substance | % of CTG repeat excision efficiency by ddPCR (DNA-PKi) [1] | % of CTG repeat excision efficiency by ddPCR (Vehicle) [1] | % of CUG foci free nuclei (DNA-PKi) [2] | % of CUG foci free nuclei (Vehicle) [2]
SaU3 + SaD13: SaCas9 sgRNA pair, SEQ ID NOs: 3 and 21 (guide 1 ACTCCGGGGCCCCGTTGGAAGA; guide 2 CCCAACAACCCCAATCCACGTT; listed as DNA, chemistry not fully specified) | 57.82% | 30.34% | 74.02% | 38.07%
SaU3 + SaD15: SaCas9 sgRNA pair, SEQ ID NOs: 3 and 23 (guide 1 ACTCCGGGGCCCCGTTGGAAGA; guide 2 GACAATAAATACCGAGGAATGT; listed as DNA, chemistry not fully specified) | 65.28% | 37.42% | 86.64% | 74.00%
SaU3 + SaD17: SaCas9 sgRNA pair, SEQ ID NOs: 3 and 25 (guide 1 ACTCCGGGGCCCCGTTGGAAGA; guide 2 TTTATTCGCGAGGGTCGGGGGT; listed as DNA, chemistry not fully specified) | 56.80% | 31.18% | 77.22% | 53.10%
SaU3 + SaD18: SaCas9 sgRNA pair, SEQ ID NOs: 3 and 26 (guide 1 ACTCCGGGGCCCCGTTGGAAGA; guide 2 GGGCCTTTTATTCGCGAGGGTC; listed as DNA, chemistry not fully specified) | 50.13% | 21.51% | 71.73% | 33.15%
SaU3 + SaD19: SaCas9 sgRNA pair, SEQ ID NOs: 3 and 27 (guide 1 ACTCCGGGGCCCCGTTGGAAGA; guide 2 AGGACCCCCACCCCCGACCCTC; listed as DNA, chemistry not fully specified) | 53.36% | 32.67% | 81.67% | 57.16%
SaU3 + SaD20: SaCas9 sgRNA pair, SEQ ID NOs: 3 and 28 (guide 1 ACTCCGGGGCCCCGTTGGAAGA; guide 2 AGATGGAGGGCCTTTTATTCGC; listed as DNA, chemistry not fully specified) | 64.44% | 40.12% | 83.99% | 72.56%
SaU4 + SaD3: SaCas9 sgRNA pair, SEQ ID NOs: 4 and 11 (guide 1 CCAGTTCACAACCGCTCCGAGC; guide 2 CAACGATAGGTGGGGGTGCGTG; listed as DNA, chemistry not fully specified) | 56.38% | 44.46% | 80.39% | 60.98%
SaU4 + SaD6: SaCas9 sgRNA pair, SEQ ID NOs: 4 and 14 (guide 1 CCAGTTCACAACCGCTCCGAGC; guide 2 CTTTTGCCAAACCCGCTTTTTC; listed as DNA, chemistry not fully specified) | 48.99% | 28.23% | 67.36% | 37.76%
SaU4 + SaD7: SaCas9 sgRNA pair, SEQ ID NOs: 4 and 15 (guide 1 CCAGTTCACAACCGCTCCGAGC; guide 2 GGGGCGCGGGATCCCCGAAAAA; listed as DNA, chemistry not fully specified) | 55.59% | 39.17% | 78.79% | 58.50%
SaU4 + SaD11: SaCas9 sgRNA pair, SEQ ID NOs: 4 and 19 (guide 1 CCAGTTCACAACCGCTCCGAGC; guide 2 CAAAACGTGGATTGGGGTTGTT; listed as DNA, chemistry not fully specified) | 54.55% | 36.98% | 78.29% | 58.71%
SaU4 + SaD12: SaCas9 sgRNA pair, SEQ ID NOs: 4 and 20 (guide 1 CCAGTTCACAACCGCTCCGAGC; guide 2 TCAGTGCATCCAAAACGTGGAT; listed as DNA, chemistry not fully specified) | 59.06% | 42.13% | 87.22% | 82.10%
SaU4 + SaD13: SaCas9 sgRNA pair, SEQ ID NOs: 4 and 21 (guide 1 CCAGTTCACAACCGCTCCGAGC; guide 2 CCCAACAACCCCAATCCACGTT; listed as DNA, chemistry not fully specified) | 54.46% | 32.38% | 73.71% | 43.83%
SaU4 + SaD15: SaCas9 sgRNA pair, SEQ ID NOs: 4 and 23 (guide 1 CCAGTTCACAACCGCTCCGAGC; guide 2 GACAATAAATACCGAGGAATGT; listed as DNA, chemistry not fully specified) | 58.99% | 39.70% | 85.73% | 79.84%
SaU4 + SaD17: SaCas9 sgRNA pair, SEQ ID NOs: 4 and 25 (guide 1 CCAGTTCACAACCGCTCCGAGC; guide 2 TTTATTCGCGAGGGTCGGGGGT; listed as DNA, chemistry not fully specified) | 55.51% | 35.01% | 79.31% | 60.96%
SaU4 + SaD18: SaCas9 sgRNA pair, SEQ ID NOs: 4 and 26 (guide 1 CCAGTTCACAACCGCTCCGAGC; guide 2 GGGCCTTTTATTCGCGAGGGTC; listed as DNA, chemistry not fully specified) | 45.55% | 26.25% | 69.76% | 36.81%
SaU4 + SaD19: SaCas9 sgRNA pair, SEQ ID NOs: 4 and 27 (guide 1 CCAGTTCACAACCGCTCCGAGC; guide 2 AGGACCCCCACCCCCGACCCTC; listed as DNA, chemistry not fully specified) | 50.21% | 36.41% | 80.80% | 67.92%
SaU4 + SaD20: SaCas9 sgRNA pair, SEQ ID NOs: 4 and 28; printed twice in Table 4 (guide 1 CCAGTTCACAACCGCTCCGAGC; guide 2 AGATGGAGGGCCTTTTATTCGC; listed as DNA, chemistry not fully specified) | 65.25% and 59.19% | 53.12% and 52.49% | 84.77% and 83.56% | 59.76% and 81.47%
SaU7 + SaD4: SaCas9 sgRNA pair, SEQ ID NOs: 7 and 12 (guide 1 CGCGGCCGGCGAACGGGGCTCG; guide 2 ACTTTGCGAACCAACGATAGGT; listed as DNA, chemistry not fully specified) | 73.99% | 57.96% | 87.34% | 74.84%
SaU7 + SaD5: SaCas9 sgRNA pair, SEQ ID NOs: 7 and 13 (guide 1 CGCGGCCGGCGAACGGGGCTCG; guide 2 GGGTTTGGCAAAAGCAAATTTC; listed as DNA, chemistry not fully specified) | 69.71% | 50.76% | 82.27% | 64.24%
SaU7 + SaD6: SaCas9 sgRNA pair, SEQ ID NOs: 7 and 14 (guide 1 CGCGGCCGGCGAACGGGGCTCG; guide 2 CTTTTGCCAAACCCGCTTTTTC; listed as DNA, chemistry not fully specified) | 55.71% | 22.54% | 67.73% | 24.89%
SaU7 + SaD7: SaCas9 sgRNA pair, SEQ ID NOs: 7 and 15 (guide 1 CGCGGCCGGCGAACGGGGCTCG; guide 2 GGGGCGCGGGATCCCCGAAAAA; listed as DNA, chemistry not fully specified) | 64.88% | 32.55% | 85.03% | 41.68%
